Measurements published in ChEMBL document CHEMBL3132769, “Fragment growing to retain or alter the selectivity of anchored kinase hinge-binding fragments” (Medchemcomm, 2014).

What was measured:
[1] = biological target: Tyrosine-protein kinase Fer (Homo sapiens) (UniProt P16591); test: Inhibition of human FER catalytic domain expressed in baculovirus assessed as substrate phosphorylation using fluorescence-labelled peptides as substrate at 8 uM after 90 mins by microfluidic peptide phosphorylation assay
[2] = biological target: Dual specificity tyrosine-phosphorylation-regulated kinase 1A (Rattus norvegicus) (UniProt Q63470); test: Inhibition of rat full length DYRK1a expressed in Escherichia coli cell assessed as substrate phosphorylation using fluorescence-labelled peptides as substrate at 8 uM after 90 mins by microfluidic peptide phosphorylation assay
[3] = tested on: Tyrosine-protein kinase ABL1 (Homo sapiens), P00519 [Q252H]; test: Inhibition of human truncated ABL Q252H mutant expressed in baculovirus assessed as substrate phosphorylation using fluorescence-labelled peptides as substrate at 0.2 uM after 90 mins by microfluidic peptide phosphorylation assay
[4] = biological target: T1, Testis-specific serine/threonine-protein kinase 1 (Homo sapiens) (UniProt Q9BXA7); test: Inhibition of human full length TSSK1 expressed in baculovirus assessed as substrate phosphorylation using fluorescence-labelled peptides as substrate at 2 uM after 90 mins by microfluidic peptide phosphorylation assay
T1 sequence (whole entry): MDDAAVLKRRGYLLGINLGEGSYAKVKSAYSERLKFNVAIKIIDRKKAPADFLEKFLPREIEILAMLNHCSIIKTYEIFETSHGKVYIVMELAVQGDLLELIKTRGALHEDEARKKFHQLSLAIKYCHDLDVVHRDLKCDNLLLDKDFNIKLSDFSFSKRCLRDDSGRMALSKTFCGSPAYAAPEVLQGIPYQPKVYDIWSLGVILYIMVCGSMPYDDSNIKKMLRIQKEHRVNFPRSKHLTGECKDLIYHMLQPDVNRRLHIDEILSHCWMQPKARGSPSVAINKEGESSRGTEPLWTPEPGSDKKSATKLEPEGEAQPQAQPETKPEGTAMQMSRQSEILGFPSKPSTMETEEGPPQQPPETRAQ

[5] = tested on: Tyrosine-protein kinase ABL1 (Homo sapiens), P00519 [Q252H]; test: Inhibition of human truncated ABL Q252H mutant expressed in baculovirus assessed as substrate phosphorylation using fluorescence-labelled peptides as substrate at 2 uM after 90 mins by microfluidic peptide phosphorylation assay
[6] = tested on: T2, Receptor-type tyrosine-protein kinase FLT3 (Homo sapiens), P36888 [D835Y]; test: Inhibition of human FLT3 D835Y mutant catalytic domain expressed in baculovirus assessed as substrate phosphorylation using fluorescence-labelled peptides as substrate at 2 uM after 90 mins by microfluidic peptide phosphorylation assay
T2 sequence (whole entry): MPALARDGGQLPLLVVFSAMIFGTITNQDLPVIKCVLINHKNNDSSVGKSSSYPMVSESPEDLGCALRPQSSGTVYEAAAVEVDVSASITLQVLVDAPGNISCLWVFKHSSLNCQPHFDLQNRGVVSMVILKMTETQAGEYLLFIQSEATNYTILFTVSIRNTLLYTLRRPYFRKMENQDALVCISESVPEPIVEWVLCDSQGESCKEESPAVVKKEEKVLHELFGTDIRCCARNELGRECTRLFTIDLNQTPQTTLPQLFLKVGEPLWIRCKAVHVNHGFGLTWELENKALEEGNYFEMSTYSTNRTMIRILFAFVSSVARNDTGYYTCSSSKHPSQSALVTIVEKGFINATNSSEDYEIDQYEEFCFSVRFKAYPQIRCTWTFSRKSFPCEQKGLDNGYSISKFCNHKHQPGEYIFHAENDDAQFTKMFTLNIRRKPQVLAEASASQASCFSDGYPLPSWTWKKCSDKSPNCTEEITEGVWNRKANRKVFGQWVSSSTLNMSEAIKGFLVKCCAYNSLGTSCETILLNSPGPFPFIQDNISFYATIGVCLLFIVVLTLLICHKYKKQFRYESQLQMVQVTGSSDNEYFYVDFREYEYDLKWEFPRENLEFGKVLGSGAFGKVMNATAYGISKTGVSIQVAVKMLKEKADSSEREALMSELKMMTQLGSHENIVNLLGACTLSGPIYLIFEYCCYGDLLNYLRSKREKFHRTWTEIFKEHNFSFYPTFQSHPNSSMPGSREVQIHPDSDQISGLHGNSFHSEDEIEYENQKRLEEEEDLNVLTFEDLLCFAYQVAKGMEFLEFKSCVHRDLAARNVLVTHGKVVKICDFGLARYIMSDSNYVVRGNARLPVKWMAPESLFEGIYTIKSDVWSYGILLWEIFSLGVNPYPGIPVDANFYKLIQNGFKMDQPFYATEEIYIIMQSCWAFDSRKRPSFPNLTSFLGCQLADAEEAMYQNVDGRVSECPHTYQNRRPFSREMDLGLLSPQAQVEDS

[7] = biological target: Ribosomal protein S6 kinase alpha-2 (Homo sapiens) (UniProt Q15349); test: Inhibition of human full length RSK3 expressed in baculovirus assessed as substrate phosphorylation using fluorescence-labelled peptides as substrate at […] after 90 mins by microfluidic peptide phosphorylation assay
[8] = tested on: Fibroblast growth factor receptor 2 (Homo sapiens), P21802 [N549H]; test: Inhibition of human FGFR2 N549H mutant catalytic domain expressed in baculovirus assessed as substrate phosphorylation using fluorescence-labelled peptides as substrate at […] after 90 mins by microfluidic peptide phosphorylation assay
[9] = biological target: Epidermal growth factor receptor (Homo sapiens) (UniProt P00533); test: Inhibition of human EGFR catalytic domain expressed in baculovirus assessed as substrate phosphorylation using fluorescence-labelled peptides as substrate at 0.1 uM after 90 mins by microfluidic peptide phosphorylation assay
[10] = biological target: Insulin receptor (Homo sapiens) (UniProt P06213); test: Inhibition of human INSR catalytic domain expressed in baculovirus assessed as substrate phosphorylation using fluorescence-labelled peptides as substrate at 95 uM after 90 mins by microfluidic peptide phosphorylation assay
[11] = biological target: Tyrosine-protein kinase ABL2 (Homo sapiens) (UniProt P42684); test: Inhibition of human truncated Arg expressed in baculovirus assessed as substrate phosphorylation using fluorescence-labelled peptides as substrate at 1000 uM after 90 mins by microfluidic peptide phosphorylation assay
[12] = biological target: Rho-associated protein kinase 2 (Homo sapiens) (UniProt O75116); test: Inhibition of human ROCK2 catalytic domain expressed in baculovirus assessed as substrate phosphorylation using fluorescence-labelled peptides as substrate at 70 uM after 90 mins by microfluidic peptide phosphorylation assay
[13] = biological target: Ribosomal protein S6 kinase alpha-1 (Homo sapiens) (UniProt Q15418); test: Inhibition of human full length RSK1 expressed in baculovirus assessed as substrate phosphorylation using fluorescence-labelled peptides as substrate at 420 uM after 90 mins by microfluidic peptide phosphorylation assay
Ribosomal protein S6 kinase alpha-1 (Homo sapiens), sequence (Q15418 whole entry): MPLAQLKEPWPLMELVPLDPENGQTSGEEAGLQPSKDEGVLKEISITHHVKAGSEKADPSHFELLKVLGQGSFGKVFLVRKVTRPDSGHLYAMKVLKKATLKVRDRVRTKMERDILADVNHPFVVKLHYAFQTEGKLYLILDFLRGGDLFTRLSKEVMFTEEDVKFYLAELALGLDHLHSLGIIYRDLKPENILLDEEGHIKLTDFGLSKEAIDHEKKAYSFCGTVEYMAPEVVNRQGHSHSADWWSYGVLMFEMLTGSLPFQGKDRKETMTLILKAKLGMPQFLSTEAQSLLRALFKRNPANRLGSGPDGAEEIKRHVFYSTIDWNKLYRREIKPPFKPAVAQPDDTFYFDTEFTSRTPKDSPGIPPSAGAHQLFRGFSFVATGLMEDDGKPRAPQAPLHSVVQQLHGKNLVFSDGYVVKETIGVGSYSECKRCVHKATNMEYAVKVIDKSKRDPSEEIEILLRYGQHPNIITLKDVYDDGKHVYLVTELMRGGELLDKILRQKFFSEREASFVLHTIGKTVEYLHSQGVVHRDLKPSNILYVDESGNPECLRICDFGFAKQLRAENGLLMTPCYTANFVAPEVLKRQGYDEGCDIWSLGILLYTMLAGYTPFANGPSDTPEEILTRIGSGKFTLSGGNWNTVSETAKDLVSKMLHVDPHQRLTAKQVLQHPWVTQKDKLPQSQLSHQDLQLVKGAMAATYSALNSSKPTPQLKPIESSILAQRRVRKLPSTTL

Tyrosine-protein kinase Fer (Homo sapiens), sequence (P16591 whole entry, looked up, the tested form may be a part): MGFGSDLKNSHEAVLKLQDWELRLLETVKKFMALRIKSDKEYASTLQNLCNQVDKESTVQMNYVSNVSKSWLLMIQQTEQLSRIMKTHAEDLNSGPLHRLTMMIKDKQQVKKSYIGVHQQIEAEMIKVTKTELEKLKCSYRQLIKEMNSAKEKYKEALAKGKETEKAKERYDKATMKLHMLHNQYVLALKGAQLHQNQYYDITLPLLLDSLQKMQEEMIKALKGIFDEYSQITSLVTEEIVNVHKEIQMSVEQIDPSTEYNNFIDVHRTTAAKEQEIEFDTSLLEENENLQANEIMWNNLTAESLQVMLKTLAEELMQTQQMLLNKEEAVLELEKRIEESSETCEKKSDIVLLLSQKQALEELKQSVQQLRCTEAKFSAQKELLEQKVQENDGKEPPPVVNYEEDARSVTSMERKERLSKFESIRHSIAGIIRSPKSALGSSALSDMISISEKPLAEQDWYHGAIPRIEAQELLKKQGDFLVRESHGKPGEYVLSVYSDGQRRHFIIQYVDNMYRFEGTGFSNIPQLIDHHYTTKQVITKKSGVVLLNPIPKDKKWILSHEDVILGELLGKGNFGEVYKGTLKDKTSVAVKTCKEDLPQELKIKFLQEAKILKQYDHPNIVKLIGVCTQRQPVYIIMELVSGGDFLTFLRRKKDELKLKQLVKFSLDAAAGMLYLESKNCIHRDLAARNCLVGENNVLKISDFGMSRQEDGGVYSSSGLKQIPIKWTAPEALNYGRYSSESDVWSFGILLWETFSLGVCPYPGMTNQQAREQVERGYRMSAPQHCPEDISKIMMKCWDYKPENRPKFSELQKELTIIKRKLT
Fibroblast growth factor receptor 2 (Homo sapiens), P21802 [N549H], sequence (P21802 whole entry N549H, the tested form may be a part): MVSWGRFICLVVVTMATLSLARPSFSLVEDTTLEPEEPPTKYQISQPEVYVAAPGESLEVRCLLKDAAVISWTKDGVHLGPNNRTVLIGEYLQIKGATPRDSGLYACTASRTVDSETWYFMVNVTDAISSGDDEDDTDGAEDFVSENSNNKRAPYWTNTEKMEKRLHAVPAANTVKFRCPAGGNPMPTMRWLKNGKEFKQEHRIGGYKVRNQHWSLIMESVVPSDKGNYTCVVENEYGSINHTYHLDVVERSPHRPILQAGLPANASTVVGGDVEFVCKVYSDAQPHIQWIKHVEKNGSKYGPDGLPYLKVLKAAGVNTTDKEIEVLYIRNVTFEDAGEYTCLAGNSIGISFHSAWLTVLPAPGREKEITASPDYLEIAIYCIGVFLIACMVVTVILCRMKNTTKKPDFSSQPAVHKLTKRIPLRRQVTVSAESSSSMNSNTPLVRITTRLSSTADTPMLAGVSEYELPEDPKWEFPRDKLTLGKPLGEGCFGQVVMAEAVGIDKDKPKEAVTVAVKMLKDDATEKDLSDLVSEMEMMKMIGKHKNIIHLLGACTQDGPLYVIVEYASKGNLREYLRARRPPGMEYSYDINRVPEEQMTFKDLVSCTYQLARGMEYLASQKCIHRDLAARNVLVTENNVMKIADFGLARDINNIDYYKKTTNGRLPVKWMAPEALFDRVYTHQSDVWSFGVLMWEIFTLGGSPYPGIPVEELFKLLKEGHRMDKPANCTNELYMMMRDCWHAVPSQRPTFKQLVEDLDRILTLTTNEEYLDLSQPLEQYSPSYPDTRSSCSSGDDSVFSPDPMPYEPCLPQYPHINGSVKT
Tyrosine-protein kinase ABL2 (Homo sapiens), sequence (P42684 whole entry, the tested form may be a part): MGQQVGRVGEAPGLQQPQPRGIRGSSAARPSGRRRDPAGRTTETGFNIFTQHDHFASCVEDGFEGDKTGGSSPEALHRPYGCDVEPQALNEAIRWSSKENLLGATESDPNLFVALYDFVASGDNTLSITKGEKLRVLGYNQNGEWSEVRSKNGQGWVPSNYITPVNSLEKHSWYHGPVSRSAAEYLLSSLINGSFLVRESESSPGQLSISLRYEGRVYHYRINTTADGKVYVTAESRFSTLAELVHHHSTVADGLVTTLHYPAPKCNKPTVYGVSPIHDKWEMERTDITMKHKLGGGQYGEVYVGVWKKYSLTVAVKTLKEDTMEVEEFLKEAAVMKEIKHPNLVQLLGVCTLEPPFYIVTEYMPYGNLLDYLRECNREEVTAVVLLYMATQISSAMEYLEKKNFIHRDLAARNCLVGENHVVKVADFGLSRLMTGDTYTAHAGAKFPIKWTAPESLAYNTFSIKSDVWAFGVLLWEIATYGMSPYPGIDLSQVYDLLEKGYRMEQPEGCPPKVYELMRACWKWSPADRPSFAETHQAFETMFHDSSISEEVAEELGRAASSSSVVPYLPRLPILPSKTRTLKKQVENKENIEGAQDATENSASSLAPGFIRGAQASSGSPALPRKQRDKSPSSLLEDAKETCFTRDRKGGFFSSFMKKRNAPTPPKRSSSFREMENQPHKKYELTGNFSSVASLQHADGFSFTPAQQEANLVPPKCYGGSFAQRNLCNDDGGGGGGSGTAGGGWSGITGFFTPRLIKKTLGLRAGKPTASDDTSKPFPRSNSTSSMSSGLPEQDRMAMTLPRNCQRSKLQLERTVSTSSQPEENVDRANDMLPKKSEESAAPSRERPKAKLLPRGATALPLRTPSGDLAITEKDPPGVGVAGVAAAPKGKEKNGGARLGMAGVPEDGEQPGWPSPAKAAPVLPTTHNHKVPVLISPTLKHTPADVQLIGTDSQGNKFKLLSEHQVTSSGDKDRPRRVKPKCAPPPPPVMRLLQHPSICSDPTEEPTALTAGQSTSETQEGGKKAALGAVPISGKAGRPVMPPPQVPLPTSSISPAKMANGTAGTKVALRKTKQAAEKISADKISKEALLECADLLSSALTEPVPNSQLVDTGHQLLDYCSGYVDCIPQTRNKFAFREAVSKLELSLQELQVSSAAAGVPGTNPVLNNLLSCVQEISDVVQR
Epidermal growth factor receptor (Homo sapiens), sequence (P00533 whole entry, the tested form may be a part): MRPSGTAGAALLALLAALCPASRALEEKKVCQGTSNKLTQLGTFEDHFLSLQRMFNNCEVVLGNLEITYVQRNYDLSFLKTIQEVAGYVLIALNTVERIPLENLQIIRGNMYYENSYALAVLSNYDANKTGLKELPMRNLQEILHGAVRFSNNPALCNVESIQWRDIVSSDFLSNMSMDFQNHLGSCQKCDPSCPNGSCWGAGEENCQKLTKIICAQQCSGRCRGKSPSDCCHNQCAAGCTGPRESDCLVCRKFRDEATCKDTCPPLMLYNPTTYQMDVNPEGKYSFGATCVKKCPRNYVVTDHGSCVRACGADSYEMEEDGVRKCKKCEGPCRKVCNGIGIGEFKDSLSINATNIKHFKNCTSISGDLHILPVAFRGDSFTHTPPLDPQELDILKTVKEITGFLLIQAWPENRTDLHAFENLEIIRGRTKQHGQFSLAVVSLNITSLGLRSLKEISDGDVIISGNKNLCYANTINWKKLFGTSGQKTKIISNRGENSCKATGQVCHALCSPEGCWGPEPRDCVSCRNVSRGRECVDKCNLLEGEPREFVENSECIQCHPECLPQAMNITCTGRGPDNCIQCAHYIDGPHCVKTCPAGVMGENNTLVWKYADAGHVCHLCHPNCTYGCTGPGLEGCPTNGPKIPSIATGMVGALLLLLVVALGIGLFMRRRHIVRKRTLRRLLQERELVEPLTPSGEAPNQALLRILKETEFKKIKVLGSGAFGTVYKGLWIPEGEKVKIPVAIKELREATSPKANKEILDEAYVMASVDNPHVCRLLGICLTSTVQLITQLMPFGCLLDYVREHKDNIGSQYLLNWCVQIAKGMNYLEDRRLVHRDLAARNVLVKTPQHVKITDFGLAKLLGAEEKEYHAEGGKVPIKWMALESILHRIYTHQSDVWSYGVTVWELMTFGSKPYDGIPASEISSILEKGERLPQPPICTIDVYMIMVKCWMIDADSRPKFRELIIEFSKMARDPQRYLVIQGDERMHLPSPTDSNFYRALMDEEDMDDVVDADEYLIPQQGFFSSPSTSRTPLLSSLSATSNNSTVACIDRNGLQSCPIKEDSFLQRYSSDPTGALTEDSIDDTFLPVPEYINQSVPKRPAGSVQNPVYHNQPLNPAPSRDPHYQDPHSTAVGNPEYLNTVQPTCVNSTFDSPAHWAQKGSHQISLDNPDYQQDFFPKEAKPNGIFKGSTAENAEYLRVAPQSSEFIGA

NCC1CCN(c2ncnc3[nH]ccc23)CC1
inhibition [1]: 1.5%
inhibition [2]: 54%

Clc1ccc(C2(c3ccc(-c4ncnc5[nH]cnc45)cc3)CCNCC2)cc1
inhibition [3]: 0%

NC1CCN(c2ncnc3[nH]ccc23)CC1
inhibition [4]: 0%
inhibition [5]: 17%
inhibition [6]: 0%

COC(=O)c1cnc(Nc2cnc(C#N)cn2)cc1NCC1CCNCC1
inhibition [7]: 44%
inhibition [8]: 6.5%

C[C@H](CN(C)C)Oc1nc(Nc2cc3cccc(Cl)c3cn2)cnc1C#N
inhibition [9]: 0.5%

NCCc1ccc(-c2ncnc3[nH]cnc23)cc1
inhibition [10]: 23.5%

c1cnc2[nH]ccc2c1
inhibition [11]: 40%

CNCc1ccc(-c2ncnc3[nH]cnc23)cc1
inhibition [12]: 88.5%

c1nc(N2CCOCC2)c2nc[nH]c2n1
inhibition [13]: 87%
